Earlier results in patent publication US20190346442A1, “IMPROVED HLA EPITOPE PREDICTION” (The Broad Institute, Inc., priority 2016, published 2019).

Legend:
[1] = system: advanced hormone refractory prostate cancer patients; details: personalized vaccination combined with a low dose of estramustine
[2] = system: ovarian carcinoma patients; details: poly-ICLC in combination with NY-ESO-1 peptide vaccine, in addition to Montanide; phase 1
healthy human volunteers = details: 8 volunteers, one single s.c. administration, versus 4 subjects receiving placebo; whole blood

Compound | patients with >50% decrease in serum prostate specific antigen (PSA) [1] [%] | patients showing induction of CD4+ and CD8+ T cell, as well as antibody responses to the peptide [2] [%] | differential expression of genes versus placebo (healthy human volunteers)
C[C@]12CC[C@@H]3c4ccc(OC(=O)N(CCCl)CCCl)cc4CC[C@H]3[C@@H]1CC[C@@H]2O [estramustine] | 54 | – | –
Polyinosinic-Polycytidylic Acid-poly-L-lysine Carboxymethylcellulose [poly-ICLC] | – | > 90 | up to 212 genes
